In assay [1] the target is T1, S. aureus ClpP (Sa-ClpP) (Staphylococcus aureus, UniProt Q2G036).
T1 construct: made in house; host or cells: E. coli BL21 (DE3)
Description: Casein-BODIPY digestion assay (ClpP activation). The format is biochemical.

Assay [2] deals with S. aureus ΔClpP. As to the kind of experiment: Minimal inhibitory concentration, microbroth dilution. The format is cell-based, Staphylococcus aureus. As to conditions: MIC; ClpP inactivated. In short, it runs like this:
(§1)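 MIC is recorded by eye as the lowest drug concentration that stops bacterial growth. Compound is serially diluted twofold in broth, starting at 200 μM final, and bacteria are added at roughly 10^5 cfu/mL. Incubation runs overnight at 37 °C under aerobic conditions, per CLSI guidance.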
For orientation: In broth dilution the organism is exposed to a series of concentrations in liquid medium.

Assay [3] relates to E. faecails. The assay is described as above. The format is cell-based. To be noted: Enterococcus faecalis. In short, it runs like this: as §1
The test system of assay [4] is MRSA NRS70. The description is as above. The format is cell-based. To be noted: Staphylococcus aureus. In short, it runs like this: as §1
For assay [5], the system named is S. aureus ATCC 29213. The description is as above. In kind it is cell-based. As to conditions: Staphylococcus aureus. In short, it runs like this:
as §1

Assay [6] relates to S. aureus USA 300. Described as above. In kind it is cell-based. To be noted: Staphylococcus aureus. In short, it runs like this: as §1
Where [7] appears, read: read-out: Minimal Inhibitory Concentrations (μM) E. faecails, MIC.
[8] abbreviates: read-out: Minimal Inhibitory Concentrations (μM) MRSA NRS70, MIC.
The mark [9] stands for this setting: ATCC29213, read-out: Minimal Inhibitory Concentrations (μM) S. aureus ATCC 29213, MIC.
The mark [10] stands for this setting: USA300, read-out: Minimal Inhibitory Concentrations (μM) S. aureus USA 300, MIC.

One may read the EC50 as the midpoint of the concentration-response curve. Lower therefore signals greater potency.

Structures are written as SMILES. Converted amounts (≈) assume the structure as drawn. Read-outs that look alike come from different tables or passages of the source. Numbered stars: 1 amine (or outer) side, 2 acyl side, 3 side chain; on linkers, the order of the positions; unused ones are H or OH. Bridge positions count the residues as written; N and C are the ends. Square brackets hold non-standard residues; d marks the D form. Peptide text beside a SMILES is read from it. * marks the point of attachment. Morpholine(3S-CO) = O=C(O)[C@@H]1COCCN1; Phe(3-Me) = Cc1cccc(C[C@H](N)C(=O)O)c1; X4 = O=C1CN([*:1])[C@H](C(=O)[*:2])CN1; Pro(4R-Me) = C[C@H]1CN[C@H](C(=O)O)C1; Hyp = O=C(O)[C@@H]1C[C@@H](O)CN1; NH(4-Cl-phenyl) = Clc1ccc(N*)cc1; aThr = C[C@H](O)[C@H](N)C(=O)O; Pip = O=C(O)[C@@H]1CCCCN1; CO = O=C([*:1])[*:2] Some results are limits rather than exact numbers.

T1 sequence (Q2G036 whole entry): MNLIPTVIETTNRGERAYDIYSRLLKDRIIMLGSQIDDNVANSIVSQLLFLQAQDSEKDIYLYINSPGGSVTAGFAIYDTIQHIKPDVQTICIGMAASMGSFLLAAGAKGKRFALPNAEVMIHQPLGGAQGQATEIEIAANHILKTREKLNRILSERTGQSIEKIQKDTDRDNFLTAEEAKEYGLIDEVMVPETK

For `Cc1cccc(C[C@H](NC(=O)Nc2ccc(Cl)cc2)C(=O)N[C@@H]2C(=O)N3CCC[C@H]3C(=O)N3CC(=O)NC[C@H]3C(=O)N[C@@H](C)C(=O)N3C[C@H](C)C[C@H]3C(=O)O[C@H]2C)c1` [Compound 75, (S)-2-(3-(4-CHLOROPHENYL)UREIDO)-3-(M-TOLYL)-N-((6AS,12S,13S,15AS,17R,21S,23AS)-13,17,21-TRIMETHYL-3,6,11,15,20,23-HEXAOXOOCTADECAHYDRO-2H,6H,11H,15H-PYRAZINO[2,1-I]DIPYRROLO[2,1-C:2′,1′-L][1]OXA[4,7,10,13]TETRAAZACYCLOHEXADECIN-12-YL)PROPANAMIDE] ({NH(4-Cl-phenyl)-CO}-[Phe(3-Me)][aThr]P[X4]A[Pro(4R-Me)]; ester 2-C), a half-maximal response in assay [1] (EC50) required 1.21 ± 1 µM. In addition, the “Minimal Inhibitory Concentrations (μM) S. aureus ΔClpP” value in assay [2] was above 20 µM. The MIC in assay [3] (setting [7]) is above 20 µM; in assay [4] (setting [8]), 20 µM (≈ 16.4 µg/mL); in assay [5] (setting [9]) it was 20 µM (≈ 16.4 µg/mL); in assay [6] (setting [10]), 10 µM (≈ 8.21 µg/mL).

In the case of `Cc1cccc(C[C@H](NC(=O)Nc2ccc(Cl)cc2)C(=O)N[C@@H]2C(=O)N3C[C@H](O)C[C@H]3C(=O)N3CCCC[C@H]3C(=O)N[C@@H](C)C(=O)N3C[C@H](C)C[C@H]3C(=O)O[C@H]2C)c1` [Compound 61, (S)-2-(3-(4-CHLOROPHENYL)UREIDO)-N-((2R,6S,8AS,14AS,16R,20S,21S,23AS)-16-HYDROXY-2,6,21-TRIMETHYL-5,8,14,19,23-PENTAOXOOCTADECAHYDRO-1H,5H,14H,19H-PYRIDO[2,1-I]DIPYRROLO[2,1-C:2′,1′-L][1]OXA[4,7,10,13]TETRAAZACYCLOHEXADECIN-20-YL)-3-(M-TOLYL)PROPANAMIDE] ({NH(4-Cl-phenyl)-CO}-[Phe(3-Me)][aThr][Hyp][Pip]A[Pro(4R-Me)]; ester 2-C), a half-maximal response in assay [1] (EC50) required 0.27 ± 0.1 µM. The “Minimal Inhibitory Concentrations (μM) S. aureus ΔClpP” value in assay [2] was above 20 µM. Further, the MIC in assay [3] (setting [7]) worked out at 2.5 µM (≈ 2.06 µg/mL); in assay [4] (setting [8]), 0.156 µM (≈ 0.128 µg/mL); in assay [5] (setting [9]), 0.156 µM (≈ 0.128 µg/mL); in assay [6] (setting [10]), 0.156 µM (≈ 0.128 µg/mL).

Turning to `CCc1ccc(NC(=O)N[C@@H](Cc2cccc(C)c2)C(=O)N[C@H]2COC(=O)[C@@H]3C[C@H](C)CN3C(=O)[C@H](C)NC(=O)[C@@H]3CCCCN3C(=O)[C@@H]3CCCN3C2=O)cc1` [Compound 52, (S)—N-((2S,6S,8AS,14AS,20S,23AS)-2,6-DIMETHYL-5,8,14,19,23-PENTAOXOOCTADECAHYDRO-1H,5H,14H,19H-PYRIDO[2,1-I]DIPYRROLO[2,1-C:2′,1′-L][1]OXA[4,7,10,13]TETRAAZACYCLOHEXADECIN-20-YL)-2-(3-(4-ETHYLPHENYL)UREIDO)-3-(M-TOLYL)PROPANAMIDE], in assay [1], a half-maximal effect (EC50) was put at 0.22 ± 0.1 µM. In addition, the “Minimal Inhibitory Concentrations (μM) S. aureus ΔClpP” value in assay [2] is above 20 µM. Besides, the MIC in assay [3] (MIC, read-out: Minimal Inhibitory Concentrations (μM) E. faecails) was 0.313 µM (≈ 0.246 µg/mL); in assay [4] (MIC, read-out: Minimal Inhibitory Concentrations (μM) MRSA NRS70), 0.313 µM (≈ 0.246 µg/mL); in assay [5] (ATCC29213, MIC, read-out: Minimal Inhibitory Concentrations (μM) S. aureus ATCC 29213), 0.625 µM (≈ 0.491 µg/mL); in assay [6] (USA300, MIC, read-out: Minimal Inhibitory Concentrations (μM) S. aureus USA 300), 0.625 µM (≈ 0.491 µg/mL).

In assay [1], `Cc1cccc(C[C@H](NC(=O)Nc2ccc(Cl)cc2)C(=O)N[C@@H]2C(=O)N3C[C@H](O)C[C@H]3C(=O)N3CCOC[C@H]3C(=O)N[C@@H](C)C(=O)N3C[C@H](C)C[C@H]3C(=O)O[C@H]2C)c1` [Compound 73, (S)-2-(3-(4-CHLOROPHENYL)UREIDO)-N-((6AS,8R,12S,13S,15AS,17R,21S,23AS)-8-HYDROXY-13,17,21-TRIMETHYL-6,11,15,20,23-PENTAOXOOCTADECAHYDRO-6H,11H,15H-[1,4]OXAZINO[3,4-I]DIPYRROLO[2,1-C:2′,1′-L][1]OXA[4,7,10,13]TETRAAZACYCLOHEXADECIN-12-YL)-3-(M-TOLYL)PROPANAMIDE] ({NH(4-Cl-phenyl)-CO}-[Phe(3-Me)][aThr][Hyp][Morpholine(3S-CO)]A[Pro(4R-Me)]; ester 2-C) displayed a concentration for a half-maximal effect (EC50) of 0.25 ± 0.1 µM. Also, in assay [2], the “Minimal Inhibitory Concentrations (μM) S. aureus ΔClpP” value is above 20 µM. In addition, the MIC came out at 0.625 µM (≈ 0.515 µg/mL) in assay [3] (setting [7]), 2.5 µM (≈ 2.06 µg/mL) in assay [4] (setting [8]), 2.5 µM (≈ 2.06 µg/mL) in assay [5] (setting [9]) and 0.625 µM (≈ 0.515 µg/mL) in assay [6] (setting [10]).

For the origin of these results see patent US10570179B2, “Substituted urea depsipeptide analogs as activators of the CLPP endopeptidase” (priority 2016, dated 2020).
